From ChEMBL document CHEMBL1147101, “Development and persistence of antimicrobial resistance in Pseudomonas aeruginosa: a longitudinal observation in mechanically ventilated patients” (Antimicrob Agents Chemother, 2007)
Calls of active or inactive are those of the source. The calls are words filed in the database; no cut-off is given here.

Key:
Format in all cases: functional, organism-based
Conditions in all cases: Trachea
Pseudomonas aeruginosa [1] = assay: Antimicrobial activity against Pseudomonas aeruginosa 65.68-3 tracheal isolates from mechanically ventilated tuberculosis patient
Pseudomonas aeruginosa [2] = assay: Antimicrobial activity against Pseudomonas aeruginosa 19E12 tracheal isolates from mechanically ventilated chronic respiratory insufficiency patient
Pseudomonas aeruginosa [3] = assay: Antimicrobial activity against Pseudomonas aeruginosa 16D2 tracheal isolates from mechanically ventilated chronic respiratory insufficiency patient
Pseudomonas aeruginosa [4] = assay: Antimicrobial activity against Pseudomonas aeruginosa 29H1 tracheal isolates from mechanically ventilated chronic respiratory insufficiency patient
Pseudomonas aeruginosa [5] = assay: Antimicrobial activity against Pseudomonas aeruginosa 22C5 tracheal isolates from mechanically ventilated chronic respiratory insufficiency patient
Pseudomonas aeruginosa [6] = assay: Antimicrobial activity against Pseudomonas aeruginosa 22D9 tracheal isolates from mechanically ventilated chronic respiratory insufficiency patient
Pseudomonas aeruginosa [7] = assay: Antimicrobial activity against Pseudomonas aeruginosa 23C5 tracheal isolates from mechanically ventilated chronic respiratory insufficiency patient
Pseudomonas aeruginosa [8] = assay: Antimicrobial activity against Pseudomonas aeruginosa 65.38-3 tracheal isolates from mechanically ventilated tuberculosis patient
Pseudomonas aeruginosa [9] = assay: Antimicrobial activity against Pseudomonas aeruginosa 13D11 tracheal isolates from mechanically ventilated chronic respiratory insufficiency patient
Pseudomonas aeruginosa [10] = assay: Antimicrobial activity against Pseudomonas aeruginosa 19E1 tracheal isolates from mechanically ventilated chronic respiratory insufficiency patient
Pseudomonas aeruginosa [11] = assay: Antimicrobial activity against Pseudomonas aeruginosa 65.36-3 tracheal isolates from mechanically ventilated tuberculosis patient
Pseudomonas aeruginosa [12] = assay: Antimicrobial activity against Pseudomonas aeruginosa 65.38-2 tracheal isolates from mechanically ventilated tuberculosis patient
Pseudomonas aeruginosa [13] = assay: Antimicrobial activity against Pseudomonas aeruginosa 65.33-1 tracheal isolates from mechanically ventilated tuberculosis patient
Pseudomonas aeruginosa [14] = assay: Antimicrobial activity against Pseudomonas aeruginosa 24F4 tracheal isolates from mechanically ventilated chronic respiratory insufficiency patient
Pseudomonas aeruginosa [15] = assay: Antimicrobial activity against Pseudomonas aeruginosa 13D3 tracheal isolates from mechanically ventilated chronic respiratory insufficiency patient
Pseudomonas aeruginosa [16] = assay: Antimicrobial activity against Pseudomonas aeruginosa 19D10 tracheal isolates from mechanically ventilated chronic respiratory insufficiency patient
Pseudomonas aeruginosa [17] = assay: Antimicrobial activity against Pseudomonas aeruginosa 19C2 tracheal isolates from mechanically ventilated chronic respiratory insufficiency patient
Pseudomonas aeruginosa [18] = assay: Antimicrobial activity against Pseudomonas aeruginosa 65.18-4 tracheal isolates from mechanically ventilated tuberculosis patient
Pseudomonas aeruginosa [19] = assay: Antimicrobial activity against Pseudomonas aeruginosa 16D5 tracheal isolates from mechanically ventilated chronic respiratory insufficiency patient
Pseudomonas aeruginosa [20] = assay: Antimicrobial activity against Pseudomonas aeruginosa 24E2 tracheal isolates from mechanically ventilated chronic respiratory insufficiency patient
Pseudomonas aeruginosa [21] = assay: Antimicrobial activity against Pseudomonas aeruginosa 5F8 tracheal isolates from mechanically ventilated chronic respiratory insufficiency patient
Pseudomonas aeruginosa [22] = assay: Antimicrobial activity against Pseudomonas aeruginosa 24E6 tracheal isolates from mechanically ventilated chronic respiratory insufficiency patient
Pseudomonas aeruginosa [23] = assay: Antimicrobial activity against Pseudomonas aeruginosa 9A7 tracheal isolates from mechanically ventilated chronic respiratory insufficiency patient
Pseudomonas aeruginosa [24] = assay: Antimicrobial activity against Pseudomonas aeruginosa 65.33-3 tracheal isolates from mechanically ventilated tuberculosis patient
Pseudomonas aeruginosa [25] = assay: Antimicrobial activity against Pseudomonas aeruginosa 19F1 tracheal isolates from mechanically ventilated chronic respiratory insufficiency patient
Pseudomonas aeruginosa [26] = assay: Antimicrobial activity against Pseudomonas aeruginosa 9B2 tracheal isolates from mechanically ventilated chronic respiratory insufficiency patient
Pseudomonas aeruginosa [27] = assay: Antimicrobial activity against Pseudomonas aeruginosa 15G10 tracheal isolates from mechanically ventilated chronic respiratory insufficiency patient
Pseudomonas aeruginosa [28] = assay: Antimicrobial activity against Pseudomonas aeruginosa 65.38-4 tracheal isolates from mechanically ventilated tuberculosis patient
Pseudomonas aeruginosa [29] = assay: Antimicrobial activity against Pseudomonas aeruginosa 13D6 tracheal isolates from mechanically ventilated chronic respiratory insufficiency patient
Pseudomonas aeruginosa [30] = assay: Antimicrobial activity against Pseudomonas aeruginosa 65.38-1 tracheal isolates from mechanically ventilated tuberculosis patient
Pseudomonas aeruginosa [31] = assay: Antimicrobial activity against Pseudomonas aeruginosa 10B1 tracheal isolates from mechanically ventilated chronic respiratory insufficiency patient
Pseudomonas aeruginosa [32] = assay: Antimicrobial activity against Pseudomonas aeruginosa 24E1 tracheal isolates from mechanically ventilated chronic respiratory insufficiency patient
Pseudomonas aeruginosa [33] = assay: Antimicrobial activity against Pseudomonas aeruginosa 19B1 tracheal isolates from mechanically ventilated chronic respiratory insufficiency patient
Pseudomonas aeruginosa [34] = assay: Antimicrobial activity against Pseudomonas aeruginosa 2A1 tracheal isolates from mechanically ventilated tuberculosis patient
Pseudomonas aeruginosa [35] = assay: Antimicrobial activity against Pseudomonas aeruginosa 22E3 tracheal isolates from mechanically ventilated chronic respiratory insufficiency patient
Pseudomonas aeruginosa [36] = assay: Antimicrobial activity against Pseudomonas aeruginosa IA5 tracheal isolates from mechanically ventilated tuberculosis patient
Pseudomonas aeruginosa [37] = assay: Antimicrobial activity against Pseudomonas aeruginosa 19F2 tracheal isolates from mechanically ventilated chronic respiratory insufficiency patient
Pseudomonas aeruginosa [38] = assay: Antimicrobial activity against Pseudomonas aeruginosa 19C12 tracheal isolates from mechanically ventilated chronic respiratory insufficiency patient
Pseudomonas aeruginosa [39] = assay: Antimicrobial activity against Pseudomonas aeruginosa 22E1 tracheal isolates from mechanically ventilated chronic respiratory insufficiency patient
Pseudomonas aeruginosa [40] = assay: Antimicrobial activity against Pseudomonas aeruginosa 24D5 tracheal isolates from mechanically ventilated chronic respiratory insufficiency patient
Pseudomonas aeruginosa [41] = assay: Antimicrobial activity against Pseudomonas aeruginosa 24D1 tracheal isolates from mechanically ventilated chronic respiratory insufficiency patient
Pseudomonas aeruginosa [42] = assay: Antimicrobial activity against Pseudomonas aeruginosa 19C5 tracheal isolates from mechanically ventilated chronic respiratory insufficiency patient

With `NCC[C@H](O)C(=O)N[C@@H]1C[C@H](N)[C@@H](O[C@H]2O[C@H](CN)[C@@H](O)[C@H](O)[C@H]2O)[C@H](O)[C@H]1O[C@H]1O[C@H](CO)[C@@H](O)[C@H](N)[C@H]1O` the Activity (Pseudomonas aeruginosa [1]) was “Active”, the Activity (Pseudomonas aeruginosa [2]) was “Active” and the Activity (Pseudomonas aeruginosa [3]) was “Active”. The Activity (Pseudomonas aeruginosa [4]) was “Active”, the Activity (Pseudomonas aeruginosa [5]) was “Active” and the Activity (Pseudomonas aeruginosa [6]) was “Active”. For the same compound, the Activity (Pseudomonas aeruginosa [7]) was “Active”, the Activity (Pseudomonas aeruginosa [8]) was “inactive” and the Activity (Pseudomonas aeruginosa [9]) was “Active”. For the same compound, the Activity (Pseudomonas aeruginosa [10]) was “Active”, the Activity (Pseudomonas aeruginosa [11]) was “inactive” and the Activity (Pseudomonas aeruginosa [12]) was “inactive”. The Activity (Pseudomonas aeruginosa [13]) was “Active”, the Activity (Pseudomonas aeruginosa [14]) was “Active” and the Activity (Pseudomonas aeruginosa [15]) was “Active”. The Activity (Pseudomonas aeruginosa [16]) was “Active”, the Activity (Pseudomonas aeruginosa [17]) was “Active” and the Activity (Pseudomonas aeruginosa [18]) was “Active”. For the same compound, the Activity (Pseudomonas aeruginosa [19]) was “Active”, the Activity (Pseudomonas aeruginosa [20]) was “Active” and the Activity (Pseudomonas aeruginosa [21]) was “Active”. The Activity (Pseudomonas aeruginosa [22]) was “Active”, the Activity (Pseudomonas aeruginosa [23]) was “Active” and the Activity (Pseudomonas aeruginosa [24]) was “inactive”. The Antimicrobial activity (Pseudomonas aeruginosa [25]) was “Active”, the Activity (Pseudomonas aeruginosa [26]) was “Active” and the Activity (Pseudomonas aeruginosa [27]) was “Active”. For the same compound, the Activity (Pseudomonas aeruginosa [28]) was “inactive”, the Activity (Pseudomonas aeruginosa [29]) was “Active” and the Activity (Pseudomonas aeruginosa [30]) was “inactive”. For the same compound, the Activity (Pseudomonas aeruginosa [31]) was “Active”, the Activity (Pseudomonas aeruginosa [32]) was “Active” and the Activity (Pseudomonas aeruginosa [33]) was “Active”. The Activity (Pseudomonas aeruginosa [34]) was “Active”, the Activity (Pseudomonas aeruginosa [35]) was “Active” and the Activity (Pseudomonas aeruginosa [36]) was “Active”. For the same compound, the Activity (Pseudomonas aeruginosa [37]) was “Active”, the Activity (Pseudomonas aeruginosa [38]) was “Active” and the Activity (Pseudomonas aeruginosa [39]) was “Active”. For the same compound, the Activity (Pseudomonas aeruginosa [40]) was “Active”, the Activity (Pseudomonas aeruginosa [41]) was “Active” and the Activity (Pseudomonas aeruginosa [42]) was “Active”.
